Measured values as given in PMC5366949, “The toxicity of angiotensin converting enzyme inhibitors to larvae of the disease vectors Aedes aegypti and Anopheles gambiae” (Scientific Reports, 2017).
Read-outs that look alike come from different tables or passages of the source.

Tests used:
[1] = test system: T1, Ae. aegypti larval ACE (soluble peptidyl dipeptidase activity); assay: fluorogenic peptidase assay, larval high-speed supernatant; type: biochemical; settings: substrate Abz-Phe-Arg-Lys(Dnp)-Pro-OH about 25 uM, pH 7.5, 50 mM NaCl, 10 uM ZnCl2, 20 C, 10 min pre-incubation, read-out: Aedes aegypti / IC50
T1 construct: native; 55,000 g supernatant of whole 3rd instar larval homogenate, not purified; gene(s) not identified for this species
From the text: fluorogenic peptidase assay, larval high-speed supernatant on Ae. aegypti larval ACE (soluble peptidyl dipeptidase activity)

[2] = test system: T2, An. gambiae larval ACE (soluble peptidyl dipeptidase activity; one or both of AnoACE2 and AnoACE3); assay: as above; type: biochemical; settings: substrate Abz-Phe-Arg-Lys(Dnp)-Pro-OH about 25 uM, pH 7.5, 50 mM NaCl, 10 uM ZnCl2, 20 C, 10 min pre-incubation, read-out: Anopheles gambiae / IC50
T2 construct: native; 55,000 g supernatant of whole 3rd instar larval homogenate, not purified; AnoACE2 and/or AnoACE3 inferred by the authors from soluble activity and larval expression
From the text: fluorogenic peptidase assay, larval high-speed supernatant on An. gambiae larval ACE (soluble peptidyl dipeptidase activity; one or both of AnoACE2 and AnoACE3)

Compound | IC50 [1] [nM] | IC50 [2] [nM] | IC50 ([1]; pro-drug ester of fosinoprilat) [nM] | IC50 ([2]; pro-drug ester of fosinoprilat) [nM]
C[C@H](CS)C(=O)N1CCC[C@H]1C(=O)O [captopril] | 2.47 | 16.7 |  | 
CCC(=O)O[C@@H](O[P@](=O)(CCCCc1ccccc1)CC(=O)N1C[C@H](C2CCCCC2)C[C@H]1C(=O)O)C(C)C [fosinopril] |  |  | 373 | 326
O=C(O)[C@@H]1C[C@@H](C2CCCCC2)CN1C(=O)CP(=O)(O)CCCCc1ccccc1 [fosinoprilat] | 6.61 | 35.2 |  | 
